Consider one compound from patent US7846708B2, “Method for increasing the survival of bacterial strains of the Rhizobium genus” (Consiglo Nazionale delle Richerch, priority 2005, dated 2010).

In experiment [1] the test system is Sinorhizobium meliloti 1021. As to the kind of experiment: Growth and survival test in liquid minimal medium (colonies on agar plates after prolonged stationary phase). In kind it is cell-based. The conditions noted are these: for ability to generate colonies with respect to the reference strain (1021): FIG. 6; for increase of the ability to generate colonies: FIG. 7, 7 and 15 days after IAA addition. On the procedure:
For the growth and survival tests the minimal medium was utilized. A culture of the various strains was kept in growth stationary phase for two days, then they were collected, properly diluted and plated at the various recommended periods of time so as to obtain about 100-1000 colonies per plate. For the strains to be treated with IAA, the addition (0.05 or 0.5 mM IAA) occurred after two days of growth in stationary phase, then the bacteria were diluted and plated.
The author has evaluated the ability of S. meliloti 1021 to generate colonies on agar plates after prolonged incubation in growth medium. The formed colonies were counted on at least five plates and the experiment was repeated at least five times.
(§1) The number of colonies of not treated Sinorhizobium meliloti 1021 was compared to the one of the same strain treated with IAA (0.05 mM and 0.5 mM) two days after reaching the stationary phase of bacterial growth. The percentage value of the surviving cells was measured several days after treatment. Applied stresses were: pH 3 (acid stress): cells were incubated for 30 minutes and then plated; NaCl 0.5 M (high osmotic pressure): 3 hours incubation; UV light resistance: time was not determined but the UV dose was selected to reach an irradiation dosage of 100 J/m^2; treatment at high temperature 55° C.: cells were incubated for 5 minutes; treatment at low temperature (4° C.) cells were incubated for up to 60 days at 4° C.
In fact, the following groups were compared: • Sm 1021; • Sm 1021 additioned with 0.5 mM IAA; • Sm 1021 additioned with 0.05 mM IAA; • Sm 1021 containing the wild promoter-iaaMtms2 construct (RD 64) • Sm 1021 containing the promoter-iaaMtms2 construct mutated in the −16/−14 GAC region (RD65); • Sm 1021 containing the promoter-iaaMtms2 construct mutated in the −48, 49, 51, 52 G region (RD66); • Sm 1021 containing the promoter-iaaMtms2 construct mutated in the −40-37 CCCC (RD67); b) Effect of Various IAA Concentrations on the Survival of Sinorhizobium Meliloti 1021
In order to evaluate the effect of different IAA concentrations on the survival of Sinorhizobium meliloti 1021 the number of colonies generated on agar plates were evaluated (see FIG. 7). The utilized concentrations were 0.05; 0.2; 0.5; and 2 mM IAA. The inocula of the wild strain not treated with IAA were used as controls as well as the RD64 strain. The number of colonies of S.m. 1021 was arbitrarily set equal to 100%. The number of colonies generated after 7 and 15 days of growth after the IAA addition in the growth liquid medium was evaluated.

The subject of experiment [2] is S. meliloti 1021. As to the kind of experiment: Survival at low temperature (4° C.), colony counting. In kind it is cell-based, Sinorhizobium meliloti. The conditions noted are these: 0.5 mM IAA; after 45 and 60 days at 4° C.; FIG. 9. The procedure:
FIG. 9: Survival at 4° C. of wild type S. meliloti 1021 treated with IAA and of the strain RD64. The bacterial cells of the three analysed strains (wild type S.m. 1021, S.m. treated with 0.5 mM IAA and RD64) were grown until exponential phase, then plated and the plates were incubated at 4° C. for 15, 30, 45 and 60 days. Every 15 days, a plate group of each strain was transferred to 30° C. for one day and the colonies were counted.
Furthermore, the author has assayed for the ability of the same strains to resist to prolonged incubations at low temperature (4° C.). The cells of the same three strains: Sm 1021, Sm 1021 treated with 0.5 mM IAA and the strain RD64, were grown until an optical density of 0.6, plated and incubated at 4° C. for periods of time variable up to two months.

The subject of experiment [3] is Sinorhizobium meliloti strain 1021 cells. As to the kind of experiment: Cell resistance of Sinorhizobium meliloti cells to various stress conditions (colony counting after stress). It counts as cell-based. The procedure:
as §1
The author has assayed for the bacteria resistance to stresses such as low and high temperatures. For the resistance to high temperatures the cells were grown in exponential phase (optical density 0.6) and then incubated for 2 minutes at room temperature or at 55° C. and then plated.
Sinorhizobium meliloti strain 1021 cells and its derivative RD64 overproducing IAA, were exposed to different stress conditions and the number of surviving cells counted by plating opportune dilutions on agar plates; after plates incubation at 30° C., the number of emerging colonies were counted (Table 1).
As a control untreated cells were plated and the number of colonies was considered as 100% for that condition. Stress applied were: • 1) low pH, pH 3, treatment: 30 minutes; • 2) high osmotic pressure (0.5 M NaCl): 3 hours; • 3) UV irradiation were automatically set at 100 J/m^2 and cells were irradiate for less that 1 minute; • 4) High (55° C.) temperature treatment: 5 minutes. Results A) Expression of the Beta-glucuronidase Modulated by the Mutation in the Promoter-iaaMtms2 Sequence

The test system of experiment [4] is Sinorhizobium meliloti 1021. As to the kind of experiment: Effect of dehydration on survival (vacuum-dried cells plated at increasing times). In kind it is cell-based. On the procedure:
A culture of the wild strain S. meliloti 1021, of the strain 64 and 66 were kept in growth stationary phase for three days, then they were dehydrated […] and plated at the various times shown in figure. Furthermore, a culture of the wild strain 1021 was subjected to analogous treatment, thereto 0.05 mM IAA were added after two days of growing in stationary phase, the stationary growth continued for a third day and then the bacteria were dehydrated and processed like the preceding samples.
For the dehydration test (FIG. 8), the cells were grown until reaching the stationary phase and kept for 3 days in stationary phase. The cells were centrifuged at 4000 rpm for 15′, washed in water and counted on plates as live colonies. The cells were then diluted so as to be aliquoted in Eppendorf tubes at the concentration of 1:10000 for each sample and then vacuum-dried in Savant centrifuge. After 4, 8, 14 and 32 days, the aliquots were plated on TYR selective medium, the formed colonies were counted on at least three plates and the experiment was repeated at least three times.

`O=C(O)Cc1c[nH]c2ccccc12` [IAA, indole-3-acetic acid]: the “ability to generate colonies with respect to the reference strain (1021)” value in experiment [1] (0.05 mM IAA added after two days in stationary phase) and in experiment [1] (0.5 mM IAA added after two days in stationary phase) was “greater ability to generate colonies” each time. The “increase of the ability to generate colonies” value in experiment [1] (0.2 mM IAA) and in experiment [1] (0.5 mM IAA) was “effective to increase the ability to generate colonies” throughout. Also, the “total increase in the number of live cells in liquid culture with respect to the wild strain” value in experiment [1] (purified IAA at 0.5 mM, after two growth weeks) is reported as “at least 100%”. Further, in experiment [2], the “number of cells able to generate colonies after incubation at 4° C. with respect to the not treated strain” value is listed as “almost the double”. For the same compound, the “Survival (%), Osmotic shock (+0.5 M NaCl)” value in experiment [3] (0.5 M NaCl, 3 hours, unstressed cells = 100%, IAA added at 0.5 mM to 1021, strain 64 without addition) stood at 78 ± 1%. For the same compound, in experiment [3] (55° C., 5 minutes, unstressed cells = 100%, IAA added at 0.5 mM to 1021, strain 64 without addition), the “Survival (%), Heat-shock (55° C.)” value was 0.196 ± 0.021%. Moreover, the “more resistant than the untreated 1021, high temperature” value in experiment [3] (55° C., relative to untreated 1021) is given as 10%. Moreover, the “Survival (%), UV-irradiation (100 J/m^2)” value in experiment [3] (100 J/m^2, unstressed cells = 100%, IAA added at 0.5 mM to 1021, strain 64 without addition) turned out to be 86 ± 1%. In experiment [3] (UV irradiation, relative to untreated 1021), the “more resistant than the untreated 1021, intense UV irradiation” value is listed as 10%. Also, the “colonies generated more than the control after heat shock” value in experiment [3] (heat shock, IAA at 0.05 mM as printed, relative to S.m. 1021) is recorded as “up to 20%”. The “more resistant than the untreated 1021, high osmotic solution” value in experiment [3] (high osmotic solution, relative to untreated 1021) was 50%. For the same compound, the “more resistant than the untreated 1021, very low pH” value in experiment [3] (pH3, 30 minutes, relative to untreated 1021) is 100%. Moreover, the “Survival (%), Acid shock (pH 3.0)” value in experiment [3] (pH 3, 30 minutes, unstressed cells = 100%, IAA added at 0.5 mM to 1021, strain 64 without addition) is listed as 0.0023 ± 0.0006%. In addition, the “increase of the survival of the bacterial cells under dehydration” value in experiment [4] (IAA at 0.05 mM, FIG. 8) is on record as “up to 50%”. Further, the “additional increase in the cellular survival of pelleted, dehydrated and plated cells” value in experiment [4] (IAA purified at 0.05 mM, after two weeks) is listed as “up to 40%”.
